Experimental data: patent US20230414638A1, “S[…] COMPOUNDS AS AMPK ACTIVATOR AND USES THEREOF” (SOCIETE DES PRODUITS NESTLE S.A., priority 2020, published 2023)
Entries after “also recorded” stand apart in the source; their conditions may differ.

Assays:
AMPK = assay: pACC HTRF assay (Cisbio) in U-2 OS Flp-In T-REx cells; type: cell-based; conditions: varying concentrations, 30 mins at 37 C
Experimental: U-2 OS Flp-In T-REx cells were seeded at 50 K in a 96-well plate and left overnight at 37 C in DMEM GlutaMAX (Thermo Fisher Scientific) supplemented with 10% (vol/vol) FBS and 100 U/ml penicillin G, and 100 μg/ml streptomycin. Cells were treated for 30 mins with varying concentrations of Compound 1 in media lacking FBS and then cells were lysed in 50 μl of Cisbio lysis buffer #1 supplemented with blocking solution as per the manufacturer's protocol (Cisbio). Compound 1 is 2,4-dihydroxy-3-[(1R,6R)-3-methyl-6-prop-1-en-2-ylcyclohex-2-en-1-yl]-6-pentylbenzoic acid, also known as Cannabidiolic acid, CAS number: 1244-58-2.
Cells were lysed for 30 mins at room temperature before 16 μl of lysate was incubated with 4 μl of the HTRF antibodies (1:40 dilution of the acceptor and donor (p)ACC antibodies, as per the manufacturers protocol). Lysates were incubated overnight with the antibodies before 665 nm/620 nm ratio was determined using a MolecularDevices i3 plate reader (with a HTRF cartridge add-on).

[1] = system: primary mouse hepatocytes; assay: Lipogenesis ([1-14C]-acetate incorporation into fatty acids) in primary hepatocytes; type: cell-based; conditions: varying concentrations, 1 h at 37 C
Experimental: Hepatocyte isolation: The liver was first perfused with 50 ml perfusion buffer (Krebs-Hepes buffer with […] EDTA), followed with 50 ml collagenase A buffer (Krebs-Hepes buffer with 5 mM CaCl2) and 0.5 mg/ml collagenase). After passage through a 100 μm mesh, the cell solution was washed several times with cold media and finally the cell culture pellet was resuspended in culture medium (medium 199 (M199)+GlutaMAX, 100 U/ml penicillin G, and 100 μg/ml streptomycin, 0.1% (wt/vol) BSA, 10% FCS, 10 nM insulin, 200 nM triiodothyronine and 500 nM dexamethasone). Hepatocytes were left to attach (3-4 h) and cultured overnight in M199 supplemented with antibiotics and 100 nM dexamethasone. Cells were used for experiments the following morning.
For lipogenesis measurements in primary hepatocytes, cells were seeded at 600 K cells per well in a 6-well plate overnight. Media was replaced with fresh M199 media alone for 2 hours prior to incubation with varying concentrations of compound 1 for 1 h at 37 C, in the presence of [1-14C]-acetate. The incorporation of [14C] into fatty acids was determined in the lower organic layer after separation from the aqueous phase.

[2] = system: β2-containing AMPK complexes; assay: pACC HTRF assay in AMPKβ1/β2 double knockout U-2 OS cells stably expressing β2 WT; type: cell-based, human; conditions: AMPKβ1β2 double knockout cells stably expressing β2 WT, varying concentrations, 30 mins at 37 C
Experimental: We took AMPKβ1/β2 double knockout cells, and re-introduced the expression of human […] or β2 WT isoforms. […] Cells stably expressing β1 WT or β2 were treated with varying concentrations of compound 1 and subjected to the pACC HTRF (Cisbio) assay to determine the level of phosphorylation of the AMPK substrate, ACC, in cell lysates, as in example 1. […] This activation profile is characteristic of activators that bind to the ADaM site and consistent with previous studies showing that ADaM-site activators have poorer activation of β2-containing complexes in vitro and in cells.

[3] = system: ADaM-binding site AMPK mutant (β1 S108A); assay: pACC HTRF assay in AMPKβ1/β2 double knockout U-2 OS cells stably expressing β1 S108A mutant; type: cell-based, human; conditions: AMPKβ1β2 double knockout cells stably expressing β1 S108A mutant, varying concentrations, 30 mins at 37 C
Text: (§1) A MPKβ1/β2 double knockout U-2 OS Flp-In™ T-Rex™ cell lines were generated by Horizon Discovery (Cambridge, UK). Cells were genotyped and analysed by western blotting to confirm that there was a complete knockout of AMPKβ1/β2. We took these AMPKβ1/β2 double knockout cells, and re-introduced the expression of human β1 wild-type (WT) or a β1 Serine 108 to alanine mutation (S108A). This was achieved using the Flp-In™ system (Invitrogen) present in this cell line and stable cells expressing β1 WT or a β1 S108A mutant were generated according to the manufacturers' protocols. Re-expression of the β1 subunit was confirmed by western blot analysis.
(§2) Cells stably expressing β1 WT or a β1 S108A mutant were treated with varying concentrations of Compound 1 and subjected to the pACC HTRF (Cisbio) assay to determine the level of phosphorylation of the AMPK substrate, ACC, in cell lysates, as in example 1.

AMPK β1 WT = assay: pACC HTRF assay in AMPKβ1/β2 double knockout U-2 OS cells stably expressing β1 WT; type: cell-based, human; conditions: AMPKβ1β2 double knockout cells stably expressing β1 WT, varying concentrations, 30 mins at 37 C
Text: as §1, §2
We took AMPKβ1/β2 double knockout cells, and re-introduced the expression of human […] or β2 WT isoforms. […] Cells stably expressing β1 WT or β2 were treated with varying concentrations of compound 1 and subjected to the pACC HTRF (Cisbio) assay to determine the level of phosphorylation of the AMPK substrate, ACC, in cell lysates, as in example 1. […]

C=C(C)[C@@H]1CCC(C)=C[C@H]1c1c(O)cc(CCCCC)c(C(=O)O)c1O [Compound 1, 2,4-dihydroxy-3-[(1R,6R)-3-methyl-6-prop-1-en-2-ylcyclohex-2-en-1-yl]-6-pentylbenzoic acid]
Phosphorylation of ACC (fold increase in activation) (AMPK): increased the phosphorylation of the AMPK substrate, acetyl-CoA carboxylase (ACC); also recorded: increases the phosphorylation of the AMPK substrate, ACC, in a dose-dependent manner | Lipogenesis (percentage compared to the no treatment control) [1]: dose-dependent inhibition of lipogenesis; also recorded: able to inhibit lipogenesis in a dose-dependent manner | Phosphorylation of ACC (fold increase in activation) [2]: impaired activation of AMPK; also recorded: impaired ability of compound 1 to increase pACC | Phosphorylation of ACC (fold increase in activation) [3]: did not activate AMPK; also recorded: not able to increase pACC | Phosphorylation of ACC (fold increase in activation) (AMPK β1 WT): able to dose-dependently increase pACC
